Assay results reported in paper PMC8297783, “Autocrine signaling by receptor tyrosine kinases in urothelial carcinoma of the bladder” (PLoS ONE, 2021).
“And” between values parts separate entries of the source, which are not always exact repeats. Identical values can stand only once. Like-named read-outs stand apart in the source and are kept apart here.

Columns and labels:
MERTK = molecular target: T1, MERTK (Homo sapiens, UniProt Q12866); assay: phospho-MERTK immunoblot of J82 and MDXC1 lysates; format: cell-based; conditions: J82 and MDXC1 cells
T1 construct: endogenous in cells; host or cells: J82 and MDXC1 (J82 xenograft explant)
T1 sequence (Q12866 21-999): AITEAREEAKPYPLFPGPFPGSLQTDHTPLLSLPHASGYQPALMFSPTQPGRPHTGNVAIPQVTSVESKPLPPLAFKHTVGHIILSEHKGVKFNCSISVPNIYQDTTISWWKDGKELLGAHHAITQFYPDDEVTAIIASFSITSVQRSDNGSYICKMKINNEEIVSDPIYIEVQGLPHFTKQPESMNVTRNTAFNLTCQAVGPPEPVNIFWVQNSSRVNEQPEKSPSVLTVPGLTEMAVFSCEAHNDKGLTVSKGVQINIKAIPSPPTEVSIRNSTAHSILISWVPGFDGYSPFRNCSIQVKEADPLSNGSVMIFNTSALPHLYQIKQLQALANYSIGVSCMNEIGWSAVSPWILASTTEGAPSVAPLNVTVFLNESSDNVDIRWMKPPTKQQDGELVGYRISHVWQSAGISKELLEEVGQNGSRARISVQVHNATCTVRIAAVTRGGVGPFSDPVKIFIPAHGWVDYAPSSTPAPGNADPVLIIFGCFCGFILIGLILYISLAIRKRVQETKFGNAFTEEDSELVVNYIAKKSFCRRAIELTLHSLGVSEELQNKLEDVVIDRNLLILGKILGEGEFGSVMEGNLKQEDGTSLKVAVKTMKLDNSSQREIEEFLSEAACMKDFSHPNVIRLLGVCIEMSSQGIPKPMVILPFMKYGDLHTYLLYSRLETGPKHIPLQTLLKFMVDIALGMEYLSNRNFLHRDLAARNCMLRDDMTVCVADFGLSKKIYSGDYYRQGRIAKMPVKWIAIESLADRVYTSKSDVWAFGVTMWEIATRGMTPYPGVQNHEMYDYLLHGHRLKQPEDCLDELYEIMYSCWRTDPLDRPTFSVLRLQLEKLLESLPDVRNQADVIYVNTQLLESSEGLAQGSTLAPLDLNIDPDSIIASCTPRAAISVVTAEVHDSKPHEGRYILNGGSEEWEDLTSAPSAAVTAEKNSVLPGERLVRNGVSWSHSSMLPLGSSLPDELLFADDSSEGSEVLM
Description: For SDS-PAGE and immunoblot analysis, cultured cells were washed with cold PBS, extracted in Laemmli sample buffer, sonicated in ice-cold water with 3 cycles of 15 sec sonication followed by 1 min of cooling time. Samples were then heated for 5 min at 95°C prior to SDS-PAGE and electrophoretic transfer to nitrocellulose or PVDF membrane. Membranes were processed as described previously: membranes were blocked with 5% milk in Tris buffered saline, 0.1% Tween 20 (TBST) for 1 h at 25°C before incubating with primary antibody (1:1000 dilution) in TBST-5% milk for 16 h at 4°C. Membranes were then washed 3 times with TBST, incubated with horse radish peroxidase-labeled secondary antibody (1:10,000 dilution) for 1 h at 25°C, and washed for 3 h with TBS prior to ECL detection (Pierce/Thermo Fisher Scientific) according to the manufacturer’s supplied protocol. Imaging and quantitation of ECL light emission was performed using an Azure Biosystems c600 imaging system (Dublin, California USA).
Fig 8 Serial passage of J82 cell xenografts in mice. (A) Tumor volume (mm^3) of individual J82 (left) or MDXC1 (middle) cell xenografts in mice, or mean (+/- SD) tumor growth of both cell line xenografts (right), vs. days post implantation.

ROS = ROS (Homo sapiens, UniProt P08922); assay: cell-free kinase inhibition assay, cabozantinib dose-dependence; format: biochemical; conditions: minimum of 3 x 10-dose curves
IGF1R = IGF1R (Homo sapiens, UniProt P08069); assay: as above; format: biochemical
TYRO3 = TYRO3 (Homo sapiens, UniProt Q06418); assay: as above; format: biochemical; conditions: minimum of 3 x 10-dose curves
FGFR1 = FGFR1 (Homo sapiens, UniProt P11362); assay: as above; format: biochemical
FGFR2 = FGFR2 (Homo sapiens, UniProt P21802); assay: as above; format: biochemical; conditions: minimum of 3 x 10-dose curves
FGFR3 = FGFR3 (Homo sapiens, UniProt P22607); assay: as above; format: biochemical
FGFR4 = FGFR4 (Homo sapiens, UniProt P22455); assay: as above; format: biochemical
FLT4 = FLT4 (Homo sapiens, UniProt P35916); assay: as above; format: biochemical; conditions: minimum of 3 x 10-dose curves
CSF1R [1] = molecular target: T2, CSF1R (Homo sapiens, UniProt P07333); assay: as above; format: biochemical; conditions: minimum of 3 x 10-dose curves
PDGFRA = PDGFRA (Homo sapiens, UniProt P16234); assay: as above; format: biochemical; conditions: minimum of 3 x 10-dose curves
DDR1 = DDR1 (Homo sapiens, UniProt Q08345); assay: as above; format: biochemical; conditions: minimum of 3 x 10-dose curves
DDR2 = DDR2 (Homo sapiens, UniProt Q16832); assay: as above; format: biochemical; conditions: minimum of 3 x 10-dose curves
NTRK2 = NTRK2 (Homo sapiens, UniProt Q16620); assay: as above; format: biochemical
NTRK3 = NTRK3 (Homo sapiens, UniProt Q16288); assay: as above; format: biochemical; conditions: minimum of 3 x 10-dose curves
NTRK1 = NTRK1 (Homo sapiens, UniProt P04629); assay: as above; format: biochemical; conditions: minimum of 3 x 10-dose curves
MUSK = MUSK (Homo sapiens, UniProt O15146); assay: as above; format: biochemical
Axl = molecular target: T3, Axl (Homo sapiens, UniProt P30530); assay: Axl kinase activation (pAxl/tAxl) by 2-site immunoassay in J82 cells; format: cell-based; conditions: serum-deprived J82 cells, Gas6 5.7 nM 1 h at 37°C, added cabozantinib 300 nM, relative to untreated cells
T3 construct: endogenous in cells; host or cells: J82 (ATCC HTB-1)

Akt [2] = assay: Akt kinase activation (pAkt/tAkt) by 2-site immunoassay in J82 cells; format: cell-based, Human; conditions: serum-deprived J82 cells
Erk [3] = assay: Erk kinase activation (pErk/tErk) by 2-site immunoassay in J82 cells; format: cell-based, Human; conditions: serum-deprived J82 cells
Akt [4] = assay: Akt kinase activation (pAkt/tAkt) in FL3 cells, MST1R and CSF1R pathways; format: cell-based, Human; conditions: serum-deprived FL3 cells, MST1 (5 nM) or CSF1 (10 nM), cabozantinib 300 nM
Erk [5] = assay: Erk kinase activation (pErk/tErk) in FL3 cells, MST1R and CSF1R pathways; format: cell-based, Human; conditions: MST1 or CSF1, cabozantinib
5637 cells = assay: cell proliferation assay, 5637 cells; format: cell-based, Human; conditions: 1% FBS, 6 d
J82 cells [6] = assay: cell proliferation assay, J82 cells; format: cell-based, Human; conditions: 1% FBS, 6 d
FL3 cells [7] = assay: cell proliferation assay, FL3 cells; format: cell-based, Human; conditions: 1% FBS, 6 d
TEK = conditions: in vitro; read-out: IC50, TEK inhibition in vitro; cited from earlier work
CSF1R [8] = molecular target: T2, CSF1R; design: method as in PMID 30075184; conditions: intact cells; cited from earlier work
advanced BCa = conditions: clinical trial of cabozantinib in advanced BCa patients; cited from earlier work
J82 cells [9] = assay: Transwell cell migration assay, J82 cells; conditions: serum deprived J82 cells, 16 h, 37°C, Gas6 5.7 nM, cabozantinib 300 nM
FL3 cells [10] = assay: Transwell cell migration assay, FL3 cells; conditions: serum deprived FL3 cells, 16 h, 37°C, cabozantinib 300 nM
J82 cells [11] = assay: anchorage independent growth assay, J82 cells; conditions: 1% FBS, cabozantinib 300 nM, with or without Gas6 5.7 nM
FL3 cells [12] = assay: anchorage independent growth assay, FL3 cells; conditions: 1% FBS, cabozantinib 300 nM, with or without MST1 5 nM or CSF1 10 nM
ALK = ALK (Homo sapiens, UniProt Q9UM73); assay: cell-free kinase inhibition assay, cabozantinib dose-dependence
[13] = Gas6 5.7 nM 1 h, cabozantinib 300 nM
[14] = cabozantinib 300 nM, in the presence or absence of added Gas6 (5.7 nM)
[15] = exogenous Gas6 5.7 nM, 1 h at 37°C

Chain of FLT4 (P35916 25-1363): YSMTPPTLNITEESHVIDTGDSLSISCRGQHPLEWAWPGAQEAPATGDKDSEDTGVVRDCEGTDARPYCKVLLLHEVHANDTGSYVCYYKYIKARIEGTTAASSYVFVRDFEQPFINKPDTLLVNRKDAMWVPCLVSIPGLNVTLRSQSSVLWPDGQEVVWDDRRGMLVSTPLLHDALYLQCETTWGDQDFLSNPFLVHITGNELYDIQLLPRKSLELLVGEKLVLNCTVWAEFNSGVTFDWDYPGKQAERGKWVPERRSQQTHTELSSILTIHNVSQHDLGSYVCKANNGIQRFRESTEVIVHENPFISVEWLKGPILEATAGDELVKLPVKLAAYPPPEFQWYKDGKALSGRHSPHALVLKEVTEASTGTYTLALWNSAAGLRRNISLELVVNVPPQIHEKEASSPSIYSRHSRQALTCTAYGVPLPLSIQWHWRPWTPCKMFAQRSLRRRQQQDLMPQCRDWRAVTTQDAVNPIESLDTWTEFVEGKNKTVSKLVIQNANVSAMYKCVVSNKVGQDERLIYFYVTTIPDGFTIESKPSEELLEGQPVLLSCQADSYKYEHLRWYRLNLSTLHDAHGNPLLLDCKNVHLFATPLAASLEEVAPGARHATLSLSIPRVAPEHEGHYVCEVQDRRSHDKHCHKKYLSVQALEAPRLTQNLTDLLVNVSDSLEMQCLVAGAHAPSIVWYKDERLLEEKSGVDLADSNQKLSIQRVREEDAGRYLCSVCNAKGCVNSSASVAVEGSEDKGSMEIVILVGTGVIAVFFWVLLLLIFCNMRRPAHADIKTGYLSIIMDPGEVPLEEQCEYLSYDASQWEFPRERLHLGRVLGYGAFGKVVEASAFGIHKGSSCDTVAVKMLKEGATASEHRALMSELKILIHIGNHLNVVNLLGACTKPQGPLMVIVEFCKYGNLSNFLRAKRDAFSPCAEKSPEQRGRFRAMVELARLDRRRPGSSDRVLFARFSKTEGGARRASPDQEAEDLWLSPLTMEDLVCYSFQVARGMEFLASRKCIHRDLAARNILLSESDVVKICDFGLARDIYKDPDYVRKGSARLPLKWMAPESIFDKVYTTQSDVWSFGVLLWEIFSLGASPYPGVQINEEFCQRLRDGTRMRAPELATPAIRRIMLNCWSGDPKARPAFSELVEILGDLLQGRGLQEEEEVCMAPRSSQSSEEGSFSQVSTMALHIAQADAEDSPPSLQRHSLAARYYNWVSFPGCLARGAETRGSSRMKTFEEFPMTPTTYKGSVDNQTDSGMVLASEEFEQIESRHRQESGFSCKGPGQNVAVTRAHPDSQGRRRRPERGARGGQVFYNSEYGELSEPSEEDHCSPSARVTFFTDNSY
Chain of ROS (P08922 28-2347): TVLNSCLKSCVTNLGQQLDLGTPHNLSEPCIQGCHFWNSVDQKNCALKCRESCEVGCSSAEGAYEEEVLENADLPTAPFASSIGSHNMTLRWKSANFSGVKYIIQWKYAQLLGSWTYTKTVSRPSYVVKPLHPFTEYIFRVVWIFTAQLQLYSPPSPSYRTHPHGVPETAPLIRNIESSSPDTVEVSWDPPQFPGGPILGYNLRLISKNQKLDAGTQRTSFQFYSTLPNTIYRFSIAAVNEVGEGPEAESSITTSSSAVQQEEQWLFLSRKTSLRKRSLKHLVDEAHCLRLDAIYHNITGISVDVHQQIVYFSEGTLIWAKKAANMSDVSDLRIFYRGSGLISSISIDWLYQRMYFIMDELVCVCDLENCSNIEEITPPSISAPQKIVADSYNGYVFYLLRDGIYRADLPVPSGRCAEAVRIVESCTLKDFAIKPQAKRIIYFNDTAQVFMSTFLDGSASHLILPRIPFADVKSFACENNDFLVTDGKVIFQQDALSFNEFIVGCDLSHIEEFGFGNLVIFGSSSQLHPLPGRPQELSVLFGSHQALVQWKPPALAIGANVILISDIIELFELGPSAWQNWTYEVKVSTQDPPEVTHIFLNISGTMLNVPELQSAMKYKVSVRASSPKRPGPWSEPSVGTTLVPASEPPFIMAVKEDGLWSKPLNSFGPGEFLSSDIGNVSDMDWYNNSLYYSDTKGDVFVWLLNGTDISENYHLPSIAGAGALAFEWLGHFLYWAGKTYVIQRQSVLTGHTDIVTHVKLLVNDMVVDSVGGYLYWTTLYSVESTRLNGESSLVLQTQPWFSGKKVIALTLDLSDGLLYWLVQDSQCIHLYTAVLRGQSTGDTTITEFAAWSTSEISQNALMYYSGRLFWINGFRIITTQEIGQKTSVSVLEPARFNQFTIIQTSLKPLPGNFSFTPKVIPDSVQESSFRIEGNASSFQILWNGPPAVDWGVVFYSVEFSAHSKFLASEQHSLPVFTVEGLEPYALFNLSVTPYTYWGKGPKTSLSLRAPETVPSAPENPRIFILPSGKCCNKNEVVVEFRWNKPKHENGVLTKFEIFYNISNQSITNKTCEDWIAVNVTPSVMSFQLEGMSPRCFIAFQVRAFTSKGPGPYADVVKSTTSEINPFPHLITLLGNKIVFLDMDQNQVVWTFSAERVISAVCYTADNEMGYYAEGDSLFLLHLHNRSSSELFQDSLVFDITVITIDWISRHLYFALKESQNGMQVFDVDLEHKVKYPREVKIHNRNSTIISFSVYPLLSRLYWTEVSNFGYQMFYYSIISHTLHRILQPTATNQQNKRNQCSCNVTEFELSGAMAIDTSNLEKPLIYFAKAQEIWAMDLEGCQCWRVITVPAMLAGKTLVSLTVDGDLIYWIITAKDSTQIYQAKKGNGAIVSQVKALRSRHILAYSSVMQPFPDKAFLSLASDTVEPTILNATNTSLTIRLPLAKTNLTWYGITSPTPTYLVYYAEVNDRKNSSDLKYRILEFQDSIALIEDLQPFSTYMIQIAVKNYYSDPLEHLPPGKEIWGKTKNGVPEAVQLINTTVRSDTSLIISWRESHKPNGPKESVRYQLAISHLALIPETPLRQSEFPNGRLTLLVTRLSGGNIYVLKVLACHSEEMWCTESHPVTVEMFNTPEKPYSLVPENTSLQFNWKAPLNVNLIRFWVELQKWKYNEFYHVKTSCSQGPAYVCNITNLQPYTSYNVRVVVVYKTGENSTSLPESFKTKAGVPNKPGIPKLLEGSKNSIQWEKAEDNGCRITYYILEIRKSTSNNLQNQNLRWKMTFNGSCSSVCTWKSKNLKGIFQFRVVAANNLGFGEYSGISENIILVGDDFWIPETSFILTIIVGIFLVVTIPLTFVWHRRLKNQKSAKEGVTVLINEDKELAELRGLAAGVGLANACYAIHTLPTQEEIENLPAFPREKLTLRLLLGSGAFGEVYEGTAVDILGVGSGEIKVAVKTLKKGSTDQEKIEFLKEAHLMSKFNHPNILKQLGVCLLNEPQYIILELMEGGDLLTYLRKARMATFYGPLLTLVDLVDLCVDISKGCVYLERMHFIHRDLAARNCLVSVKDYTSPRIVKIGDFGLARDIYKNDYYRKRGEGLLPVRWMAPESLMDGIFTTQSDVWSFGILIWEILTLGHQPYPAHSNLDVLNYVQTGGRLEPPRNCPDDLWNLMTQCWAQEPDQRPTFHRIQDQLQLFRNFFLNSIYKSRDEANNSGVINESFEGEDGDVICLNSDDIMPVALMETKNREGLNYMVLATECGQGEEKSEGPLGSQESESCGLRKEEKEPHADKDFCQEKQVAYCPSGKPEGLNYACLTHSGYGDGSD
Chain of NTRK2 (Q16620 32-822): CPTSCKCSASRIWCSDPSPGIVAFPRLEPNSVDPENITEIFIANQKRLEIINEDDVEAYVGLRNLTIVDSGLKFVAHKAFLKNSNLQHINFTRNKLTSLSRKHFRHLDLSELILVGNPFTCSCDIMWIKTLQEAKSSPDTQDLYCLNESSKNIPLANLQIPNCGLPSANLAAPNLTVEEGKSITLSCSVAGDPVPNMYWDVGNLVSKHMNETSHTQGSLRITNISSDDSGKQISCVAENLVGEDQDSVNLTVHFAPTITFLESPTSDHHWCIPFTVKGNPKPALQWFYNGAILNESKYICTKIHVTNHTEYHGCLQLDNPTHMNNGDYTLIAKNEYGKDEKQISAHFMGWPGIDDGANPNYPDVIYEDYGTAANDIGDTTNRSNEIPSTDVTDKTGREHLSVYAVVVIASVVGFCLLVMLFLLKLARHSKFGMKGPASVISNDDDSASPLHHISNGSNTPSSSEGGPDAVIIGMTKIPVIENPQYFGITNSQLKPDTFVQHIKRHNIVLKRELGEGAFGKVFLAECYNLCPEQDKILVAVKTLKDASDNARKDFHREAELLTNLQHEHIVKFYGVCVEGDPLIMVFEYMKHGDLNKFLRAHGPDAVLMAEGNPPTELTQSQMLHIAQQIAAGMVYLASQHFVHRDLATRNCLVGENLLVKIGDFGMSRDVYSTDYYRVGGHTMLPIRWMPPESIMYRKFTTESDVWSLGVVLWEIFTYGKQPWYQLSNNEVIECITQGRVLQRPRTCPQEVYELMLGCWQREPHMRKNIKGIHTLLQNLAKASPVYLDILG

## CN1CCN(Cc2ccc(Nc3ncc(Cl)c(Nc4ccccc4S(=O)(=O)N(C)C)n3)cc2)CC1 [TP0903]
MERTK; TP0903 300 nM
  phospho-MERTK content: reduced phospho-MERTK content below that of untreated serum-deprived cells

## COc1cc2nccc(Oc3ccc(NC(=O)C4(C(=O)Nc5ccc(F)cc5)CC4)cc3)c2cc1OC [cabozantinib]
ROS
  IC50: 0.043 µM and < 0.05 µM
IGF1R
  IC50: > 3 µM
TYRO3
  IC50: < 0.05 µM and 0.003 µM
FGFR1
  IC50: > 3 µM
FGFR2
  IC50: > 3 µM
FGFR3
  IC50: > 3 µM
FGFR4
  IC50: > 3 µM
FLT4
  IC50: 0.024 µM and < 0.05 µM
CSF1R [1]
  IC50: 0.014 µM
PDGFRA
  IC50: 0.414 µM
DDR1
  IC50: < 0.15 µM
DDR2
  IC50: < 0.15 µM
NTRK2
  IC50: < 0.05 µM
NTRK2; IC50 (NTRK2), cell-free assay, minimum of 3 x 10-dose curves
  IC50: 0.015 µM
NTRK3
  IC50: < 0.15 µM
NTRK1
  IC50: 0.011 µM
MUSK
  IC50: > 3 µM
Axl
  Axl kinase activation (pAxl/tAxl): suppressed significantly below control levels
Akt [2]; [13]
  Akt kinase activation (pAkt/tAkt): suppression below baseline
Erk [3]; [13]
  Erk kinase activation (pErk/tErk): suppression below baseline
Akt [4]
  Akt kinase activation (pAkt/tAkt): suppressed significantly below baseline
Erk [5]
  Erk kinase activation (pErk/tErk): suppressed significantly below baseline
5637 cells; [14]
  proliferation: significantly inhibited proliferation by these lines below the rate of untreated cells
J82 cells [6]; [14]
  proliferation: significantly inhibited proliferation by these lines below the rate of untreated cells
FL3 cells [7]; both cabozantinib 300 nM and MST1 5 nM
  proliferation: reduced FL3 proliferation to the control cell growth rate, but not below
FL3 cells [7]; cabozantinib alone 300 nM, relative to untreated cells
  proliferation rate: significantly reduced proliferation rate
TEK
  IC50: 0.014 µM
CSF1R [8]
  inhibition of CSF1R activation: complete inhibition
Advanced BCa
  overall response rate: 33%
J82 cells [9]
  Gas6-induced migration: repressed
FL3 cells [10]; CSF1 10 nM
  CSF1-induced migration: repressed
FL3 cells [10]; MST1 5 nM
  MST1-induced migration: repressed
J82 cells [11]
  anchorage independent growth: inhibited
FL3 cells [12]
  anchorage independent growth: inhibited
ALK
  IC50: > 3 µM

## Gas6: exogenous ligand of AXL (also activates MERTK), added to cells at 5.7 nM
Akt [2]; [15]
  Akt kinase activation (pAkt/tAkt): significant exogenous Gas6-induced activation
Erk [3]; [15]
  Erk kinase activation (pErk/tErk): significant exogenous Gas6-induced activation
5637 cells; exogenously added Gas6 5.7 nM
  proliferation rate: significantly increased
J82 cells [6]; exogenously added Gas6 5.7 nM
  proliferation rate: significantly increased
MERTK; exogenous Gas6 5.7 nM
  MERTK autophosphorylation: stimulated robust MERTK autophosphorylation
